The test system of one assay is MV4-11. Briefly: Cellular MV4-11 viability assay (CellTiter-Glo, 72 hours). It is filed as cell-based. The conditions noted are these: Homo sapiens. How it is done: (§1) All cell lines were routinely tested for mycoplasma.
(§2) The effect of the CDK7 inhibitor to inhibit the growth of target cancer cells was evaluated through the 72 hours time period of viability assay. Briefly, the candidate cell line ware plated in 96 well plate at the following density of cells respectively. […] DMSO solvent without compound served as a control and final DMSO concentration less than 0.1%. After 72 hours of incubation at 37° C., 5% CO2 incubator, cells were analyzed for the viability using the CellTiter-Glo Luminescent Cell Viability Assay (Promega, Cat #G7570). All viability assays were performed in duplicate and Luminescence was read using an Envision (Perkin Elmer, USA). Data was analyzed using XLfit software.

For another assay, the system named is H460. In words: Cellular H460 viability assay (CellTiter-Glo, 72 hours). In kind it is cell-based. To be noted: Homo sapiens, NCI-H460. In a few lines:
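Growth inhibition is assessed over a 72-hour incubation at 37 °C in 5% CO2, relative to DMSO vehicle (final concentration less than 0.1%). Luminescence from CellTiter-Glo serves as the viability signal.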

The test system of another assay is HCT116. Briefly: Cellular HCT116 viability assay (CellTiter-Glo, 72 hours). To be noted: Homo sapiens, HCT-116. It is filed as cell-based. On the procedure: as §1, §2
In a further assay the target is T1, CDK5/p25 (Homo sapiens, UniProt Q00535).
T1 construct: purchased Invitrogen PR8543B
T1 sequence (Q00535 whole entry): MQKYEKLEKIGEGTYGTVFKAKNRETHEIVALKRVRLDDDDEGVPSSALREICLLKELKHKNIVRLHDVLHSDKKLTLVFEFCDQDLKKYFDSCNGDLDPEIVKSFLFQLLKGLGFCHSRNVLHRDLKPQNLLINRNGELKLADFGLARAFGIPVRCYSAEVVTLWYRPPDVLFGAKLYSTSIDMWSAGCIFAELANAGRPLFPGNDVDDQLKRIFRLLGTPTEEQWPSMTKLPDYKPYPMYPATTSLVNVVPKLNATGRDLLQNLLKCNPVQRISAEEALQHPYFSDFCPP
T1 sequence (Q15078 99-307 partner limits assumed): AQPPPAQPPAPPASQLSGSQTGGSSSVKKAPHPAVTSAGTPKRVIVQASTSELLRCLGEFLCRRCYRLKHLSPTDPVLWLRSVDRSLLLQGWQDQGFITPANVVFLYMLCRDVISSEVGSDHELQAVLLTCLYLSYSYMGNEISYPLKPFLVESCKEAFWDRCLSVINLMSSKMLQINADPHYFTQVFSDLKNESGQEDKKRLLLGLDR
In words: Enzymatic assay for CDK5 (FRET based LANCE Ultra kinase assay). In kind it is biochemical. The conditions noted are these: read-out: CDK5 enzymatic activity (IC50 range). In a few lines:
(§3)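 LANCE Ultra TR-FRET: ULight-MBP peptide (68 nM) with ATP at Km, […], 60 min at 23° C. EDTA plus Eu-anti-phospho-MBP added, another 60 min, then 665/615 nm emission read. Compounds tested as 8-dose 4-fold DMSO dilutions.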

In a further assay the target is T2, CDK1/Cyclin B (Homo sapiens, UniProt P06493).
T2 construct: purchased Invitrogen PR4768C
T2 sequence (P06493 whole entry): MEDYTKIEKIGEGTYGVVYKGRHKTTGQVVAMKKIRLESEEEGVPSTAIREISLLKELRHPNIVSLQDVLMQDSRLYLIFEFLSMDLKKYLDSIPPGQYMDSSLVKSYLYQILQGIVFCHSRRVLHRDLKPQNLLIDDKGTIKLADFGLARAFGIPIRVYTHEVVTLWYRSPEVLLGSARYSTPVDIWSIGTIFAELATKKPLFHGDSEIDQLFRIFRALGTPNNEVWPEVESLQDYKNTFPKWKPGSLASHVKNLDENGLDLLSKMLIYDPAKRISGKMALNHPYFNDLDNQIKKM
T2 sequence (P14635 whole entry partner): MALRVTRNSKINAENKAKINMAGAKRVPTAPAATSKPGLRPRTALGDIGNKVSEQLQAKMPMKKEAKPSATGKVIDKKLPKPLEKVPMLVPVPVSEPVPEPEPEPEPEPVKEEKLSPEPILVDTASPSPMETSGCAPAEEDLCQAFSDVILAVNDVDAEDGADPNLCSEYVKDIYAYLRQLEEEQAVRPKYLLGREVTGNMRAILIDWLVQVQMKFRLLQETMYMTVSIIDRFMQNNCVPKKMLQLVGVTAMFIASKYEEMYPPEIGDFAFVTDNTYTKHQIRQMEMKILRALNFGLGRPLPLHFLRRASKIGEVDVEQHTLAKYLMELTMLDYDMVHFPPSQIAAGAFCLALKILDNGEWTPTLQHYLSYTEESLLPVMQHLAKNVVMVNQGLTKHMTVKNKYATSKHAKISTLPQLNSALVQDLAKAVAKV
Briefly: Enzymatic assay for CDK1 (FRET based LANCE Ultra kinase assay). It is filed as biochemical. To be noted: read-out: CDK1 enzymatic activity (IC50 range). The gist of the method: as §3

Another assay deals with T3, CDK2/Cyclin A (Homo sapiens, UniProt P24941).
T3 construct: purchased Invitrogen PV6290
In words: Enzymatic assay for CDK2 (FRET based LANCE Ultra kinase assay). The conditions noted are these: read-out: CDK2 enzymatic activity (IC50 range). In kind it is biochemical. In a few lines: as §3

The next assay deals with T4, CDK7/Cyclin H/MNAT1 (Homo sapiens, UniProt P50613).
T4 construct: purchased Invitrogen PR6749B
T4 sequence (P50613 whole entry): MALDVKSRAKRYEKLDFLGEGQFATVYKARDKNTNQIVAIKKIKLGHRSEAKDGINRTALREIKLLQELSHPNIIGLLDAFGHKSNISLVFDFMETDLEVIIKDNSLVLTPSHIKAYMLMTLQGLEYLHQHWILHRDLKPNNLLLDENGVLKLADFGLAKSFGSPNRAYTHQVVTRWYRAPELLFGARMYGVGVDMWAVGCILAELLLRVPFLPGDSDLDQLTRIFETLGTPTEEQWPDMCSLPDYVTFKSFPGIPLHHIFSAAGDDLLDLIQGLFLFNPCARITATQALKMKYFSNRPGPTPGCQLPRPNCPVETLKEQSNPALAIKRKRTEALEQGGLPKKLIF
T4 sequence (P51946 whole entry partner): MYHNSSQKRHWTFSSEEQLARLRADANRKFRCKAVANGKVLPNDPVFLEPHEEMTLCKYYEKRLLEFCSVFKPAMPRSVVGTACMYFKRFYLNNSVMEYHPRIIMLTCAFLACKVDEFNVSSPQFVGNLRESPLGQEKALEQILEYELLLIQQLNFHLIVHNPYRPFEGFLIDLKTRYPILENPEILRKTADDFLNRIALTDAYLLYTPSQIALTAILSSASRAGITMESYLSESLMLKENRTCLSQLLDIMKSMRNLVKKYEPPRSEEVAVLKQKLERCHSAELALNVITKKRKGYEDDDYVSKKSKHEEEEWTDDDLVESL
T4 sequence (P51948 whole entry partner): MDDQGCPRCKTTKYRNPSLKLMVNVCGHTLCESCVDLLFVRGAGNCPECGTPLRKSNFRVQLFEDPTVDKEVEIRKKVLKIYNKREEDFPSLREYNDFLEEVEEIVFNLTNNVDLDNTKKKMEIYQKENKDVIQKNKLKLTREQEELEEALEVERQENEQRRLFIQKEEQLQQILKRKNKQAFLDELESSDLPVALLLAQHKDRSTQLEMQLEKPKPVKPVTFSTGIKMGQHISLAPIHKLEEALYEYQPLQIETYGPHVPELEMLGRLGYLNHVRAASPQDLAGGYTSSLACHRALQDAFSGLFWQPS
Briefly: Enzymatic assay for CDK7 (FRET based LANCE Ultra kinase assay). It is filed as biochemical. To be noted: for IC50: read-out: CDK7 enzymatic activity (IC50 range). In a few lines:
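Inhibition was measured at Km ATP by time-resolved FRET between a Eu anti-phospho antibody and a phosphorylated ULight peptide. The enzyme was the purified CDK7/cyclin complex, and data were curve-fitted.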

Molecules are shown by their SMILES.

Regarding `CC(C)c1cnn2c(NCc3ccccc3-n3ccc(C(C)(C)O)n3)nc(NCC3CCNCC3O)nc12` (stereo not drawn) [Compound 223], the IC50 in the assay on MV4-11 was less than 1000 nM; in the assay with H460, less than 1000 nM; with HCT116, less than 1000 nM; on CDK5/p25, greater than 1000 nM; on CDK1/Cyclin B it was greater than 1000 nM; at CDK2/Cyclin A it was greater than 1000 nM. Moreover, at CDK7/Cyclin H/MNAT1, the half-maximal inhibitory concentration (IC50) is less than 100 nM. In addition, the “CDK1/CDK7: Selectivity of CDK7 inhibition over CDK1 inhibition” value at CDK7/Cyclin H/MNAT1 is “A (A=greater than 200 fold)”. For the same compound, the “CDK2/CDK7: Selectivity of CDK7 inhibition over CDK2 inhibition” value at CDK7/Cyclin H/MNAT1 is reported as “B (B=less than 200 fold, but greater than 20 fold)”. The “CDK5/CDK7: Selectivity of CDK7 inhibition over CDK5 inhibition” value on CDK7/Cyclin H/MNAT1 is listed as “B (B=less than 200 fold, but greater than 20 fold)”.

For the compound `CC(C)c1cnn2c(NCc3ccccc3-n3ccc(C(C)(C)O)n3)nc(NCC3CCNCC3)nc12` [Compound 224], the IC50 in the assay with MV4-11 was less than 1000 nM; with H460 it was less than 1000 nM; with HCT116 it was less than 1000 nM; at CDK5/p25, greater than 1000 nM; at CDK1/Cyclin B, greater than 1000 nM; on CDK2/Cyclin A, greater than 1000 nM. The IC50 on CDK7/Cyclin H/MNAT1 is less than 100 nM. For the same compound, at CDK7/Cyclin H/MNAT1, the “CDK1/CDK7: Selectivity of CDK7 inhibition over CDK1 inhibition” value is reported as “A (A=greater than 200 fold)”. For the same compound, the “CDK2/CDK7: Selectivity of CDK7 inhibition over CDK2 inhibition” value on CDK7/Cyclin H/MNAT1 was “A (A=greater than 200 fold)”. For the same compound, the “CDK5/CDK7: Selectivity of CDK7 inhibition over CDK5 inhibition” value at CDK7/Cyclin H/MNAT1 is on record as “A (A=greater than 200 fold)”.

As for `CC(C)c1cnn2c(NCc3c(Cl)cccc3-n3ccc(C(C)(C)O)n3)nc(N3CCC(CN)CC3)nc12` [Compound 217], the half-maximal inhibitory concentration (IC50) in the assay with MV4-11 is less than 1000 nM; in the assay with H460, less than 1000 nM; in the assay on HCT116, less than 1000 nM; at CDK5/p25, greater than 1000 nM; at CDK1/Cyclin B, greater than 1000 nM; at CDK2/Cyclin A, greater than 1000 nM. Besides, the IC50 on CDK7/Cyclin H/MNAT1 is less than 100 nM. On CDK7/Cyclin H/MNAT1, the “CDK1/CDK7: Selectivity of CDK7 inhibition over CDK1 inhibition” value is “A (A=greater than 200 fold)”. Besides, on CDK7/Cyclin H/MNAT1, the “CDK2/CDK7: Selectivity of CDK7 inhibition over CDK2 inhibition” value is listed as “A (A=greater than 200 fold)”. Moreover, the “CDK5/CDK7: Selectivity of CDK7 inhibition over CDK5 inhibition” value at CDK7/Cyclin H/MNAT1 is on record as “A (A=greater than 200 fold)”.

Regarding `CC(C)c1cnn2c(NCc3ccccc3-c3ccc4ccccc4n3)nc(OCC3CCNCC3)nc12` [Compound 215], the 50% inhibitory concentration (IC50) in the assay with MV4-11 is 1000 to 10000 nM; in the assay on H460, less than 1000 nM; in the assay on HCT116, 1000 to 10000 nM; on CDK5/p25, greater than 1000 nM; on CDK1/Cyclin B, greater than 1000 nM; on CDK2/Cyclin A, greater than 1000 nM. Also, the IC50 on CDK7/Cyclin H/MNAT1 is less than 100 nM. Moreover, the “CDK1/CDK7: Selectivity of CDK7 inhibition over CDK1 inhibition” value at CDK7/Cyclin H/MNAT1 is “A (A=greater than 200 fold)”. Moreover, the “CDK2/CDK7: Selectivity of CDK7 inhibition over CDK2 inhibition” value on CDK7/Cyclin H/MNAT1 is recorded as “A (A=greater than 200 fold)”. Also, the “CDK5/CDK7: Selectivity of CDK7 inhibition over CDK5 inhibition” value at CDK7/Cyclin H/MNAT1 is “A (A=greater than 200 fold)”.

In the case of `CC(C)c1cnn2c(NCc3ccccc3-n3cc(N4CCOCC4)cn3)nc(N3CCC(N)CC3)nc12` [Compound 156], the IC50 with MV4-11 was less than 1000 nM; with H460 it was less than 1000 nM; with HCT116 it was less than 1000 nM; on CDK5/p25, 100 to 1000 nM; at CDK1/Cyclin B it was greater than 1000 nM; on CDK2/Cyclin A it was 100 to 1000 nM. Also, on CDK7/Cyclin H/MNAT1, the IC50 was less than 100 nM. The “CDK1/CDK7: Selectivity of CDK7 inhibition over CDK1 inhibition” value on CDK7/Cyclin H/MNAT1 is “A (A=greater than 200 fold)”. Besides, the “CDK2/CDK7: Selectivity of CDK7 inhibition over CDK2 inhibition” value on CDK7/Cyclin H/MNAT1 is recorded as “B (B=less than 200 fold, but greater than 20 fold)”. Further, the “CDK5/CDK7: Selectivity of CDK7 inhibition over CDK5 inhibition” value at CDK7/Cyclin H/MNAT1 is on record as “B (B=less than 200 fold, but greater than 20 fold)”.

Turning to `CCC(=O)N1CCc2nn(-c3cccc(Cl)c3CNc3cc(O[C@@H]4CCCNC4)nc4c(C(C)C)cnn34)cc2C1` [Compound 211], the IC50 with MV4-11 is 1000 to 10000 nM; in the assay with H460 it was 1000 to 10000 nM; with HCT116 it was 1000 to 10000 nM; on CDK5/p25 it was greater than 1000 nM; at CDK1/Cyclin B, greater than 1000 nM; at CDK2/Cyclin A, greater than 1000 nM. Moreover, on CDK7/Cyclin H/MNAT1, the IC50 is less than 100 nM. On CDK7/Cyclin H/MNAT1, the “CDK1/CDK7: Selectivity of CDK7 inhibition over CDK1 inhibition” value is reported as “A (A=greater than 200 fold)”. In addition, the “CDK2/CDK7: Selectivity of CDK7 inhibition over CDK2 inhibition” value on CDK7/Cyclin H/MNAT1 is given as “A (A=greater than 200 fold)”. Besides, on CDK7/Cyclin H/MNAT1, the “CDK5/CDK7: Selectivity of CDK7 inhibition over CDK5 inhibition” value is reported as “A (A=greater than 200 fold)”.
